The text below walks through data of US10358451B2, “Heterocycles useful as IDO and TDO inhibitors” (Hangzhou Innogate Pharma Co., Ltd., priority 2015, dated 2019).

The target in one test is human IDO enzyme (IDO1) (Homo sapiens (Human), UniProt P14902). Put plainly: IDO1 enzyme assay. Format: biochemical. Conditions: for inhibition at 0.5 µM: read-out: IDO1 (inhibition % at 500 nM). The protocol:
The compounds were initially prepared in DMSO at 10 mM, then diluted in MES buffer to desired concentration. […] The mixture was centrifuged for 1 minute, then pre-incubated at room temperature for 30 minutes. […] The resulting reaction mixture was incubated at 25° C. for 40 minutes. The reaction was terminated by adding 50 ul of 30% (w/v) trichloroacetic acid. The sample was further incubated for 30 min at 60° C. and centrifuged at 2000 rpm for 5 min to remove precipitated protein. The supernatant was used to mix with an equal volume of Ehrlich's reagent (2% w/v p-dimethylaminobenzaldehyde in glacial acetic acid), then mixture was incubated at room temperature for 10 minutes. OD value was read at 490 nm in a spectrophotometer.
wherein High control=no compound; Low control=no enzyme and no compound.
IC50 values were calculated by fitting the doseresponse curves with Xlfit excel add-in version 4.3.1.

Another test addresses human TDO enzyme (Homo sapiens (Human), UniProt P48775). Briefly: TDO enzyme assay. Format: biochemical. The following applies: for inhibition at 1 µM: read-out: TDO (inhibition % at 1000 nM). The protocol: In vitro TDO enzymatic activity was determined in a mixture of 50 mM potassium phosphate buffer, pH 6.5; 200 nM human TDO enzyme, 300 μM L-Tryptophan, 0.2 mg/mL Catalase, 20 mM ascorbic Acid and 20 μM Methylene Blue. 100× compounds were prepared in DMSO from 1 mM, then diluted three fold, 8 doses in total. 2 μL compounds were added to 96 well plate, followed by addition of 100 μL 400 nM TDO and 0.4 mg/ml catalase in each well. The mixture was centrifuged for 1 minute, then pre-incubated at room temperature for 10 minutes. The reaction was started by the addition of 100 μL mixture of 600 μM L-Tryptophan, 40 μM methylene blue and 40 mM ascorbic acid in 50 mM potassium phosphate buffer, pH 6.5. […] Copy slope data from Synergy program, and convert slope values to inhibition values. Percent inhibition=(max−conversion)/(max−min)*100. “max” stands for high control; “min” stands for low control. Fit the data in GraphPad Prism5.0 to obtain IC50 values. Equation used is: Y=Bottom+(Top−Bottom)/(1+10^((Log IC50−X)*HillSlope).

As a reminder, the IC50 is the point on the concentration scale where inhibition reaches its midpoint. The inhibition is the share of the control response that was lost under treatment.

Chain of human TDO enzyme (P48775 whole entry): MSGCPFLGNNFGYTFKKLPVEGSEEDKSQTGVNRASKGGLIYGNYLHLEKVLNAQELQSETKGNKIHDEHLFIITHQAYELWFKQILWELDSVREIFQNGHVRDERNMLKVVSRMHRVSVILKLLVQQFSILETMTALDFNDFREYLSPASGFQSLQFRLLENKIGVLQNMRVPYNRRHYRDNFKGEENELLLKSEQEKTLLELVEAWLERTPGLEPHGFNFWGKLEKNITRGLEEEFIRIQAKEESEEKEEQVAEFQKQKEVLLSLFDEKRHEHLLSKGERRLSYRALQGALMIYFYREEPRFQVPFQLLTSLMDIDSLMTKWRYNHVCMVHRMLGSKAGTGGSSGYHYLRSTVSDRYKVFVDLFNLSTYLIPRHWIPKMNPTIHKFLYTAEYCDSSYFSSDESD
Chain of human IDO enzyme (IDO1) (P14902 whole entry): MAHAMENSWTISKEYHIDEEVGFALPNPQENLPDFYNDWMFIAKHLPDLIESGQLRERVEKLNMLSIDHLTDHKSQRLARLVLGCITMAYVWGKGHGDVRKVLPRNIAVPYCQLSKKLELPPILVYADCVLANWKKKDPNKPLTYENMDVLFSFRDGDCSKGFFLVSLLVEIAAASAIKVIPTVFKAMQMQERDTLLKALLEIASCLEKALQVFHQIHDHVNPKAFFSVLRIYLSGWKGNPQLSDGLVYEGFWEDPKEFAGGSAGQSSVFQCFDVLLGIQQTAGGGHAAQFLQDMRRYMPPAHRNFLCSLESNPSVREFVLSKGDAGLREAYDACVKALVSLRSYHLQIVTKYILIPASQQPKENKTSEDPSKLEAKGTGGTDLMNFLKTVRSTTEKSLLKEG

As for `OC(CC1c2ccccc2-c2cncn21)C12CC3CC(CC(C3)C1)C2` (stereo not shown) [Compound 10, 1-((3r,5r,7r)-adamantan-1-yl)-2-(5H-imidazo[5,1-a]isoindol-5-yl)ethanol], the IC50 against human IDO enzyme (IDO1) is < 0.5 µM. Also, the inhibition at 1 µM on human TDO enzyme was > 50%.
Take `OC(CC1c2c(F)cccc2-c2cncn21)C12CCC(O)(CC1)CC2` (stereo not shown) [Compound 16, 4-(2-(6-fluoro-5H-imidazo[5,1-a]isoindol-5-yl)-1-hydroxyethyl)bicyclo[2.2.2]octan-1-ol]: the half-maximal inhibitory concentration (IC50) against human IDO enzyme (IDO1) is < 0.1 µM; at human TDO enzyme it was < 0.2 µM.
In the case of `FC(F)(CC1c2ccccc2-c2cncn21)C1CCCCC1` (stereo not shown) [Compound 6, 5-(2-cyclohexyl-2,2-difluoroethyl)-5H-imidazo[5,1-a]isoindole], the inhibition at 0.5 µM at human IDO enzyme (IDO1) was > 50%. Further, at human TDO enzyme, the inhibition at 1 µM is > 50%.
With `OC(CC1c2c(F)cccc2-c2cncn21)C1C2CC3CC1CC(O)(C3)C2` [Compound 18k-2, (1s,3R,5S,7s)-4-(2-(6-fluoro-5H-imidazo[5,1-a]isoindol-5-yl)-1-hydroxyethyl)adamantan-1-ol], the IC50 against human IDO enzyme (IDO1) was < 0.1 µM.
Turning to `O=[N+]([O-])c1ccccc1N1CCC(C(O)CC2c3ccccc3-c3cncn32)CC1` (stereo not shown) [Compound 7, 2-(5H-imidazo[5,1-a]isoindol-5-yl)-1-(1-(2-nitrophenyl)piperidin-4-yl)ethanol], at human IDO enzyme (IDO1), the inhibition at 0.5 µM is > 50%.
As to `OC(CC1c2c(F)cccc2-c2cncn21)C12C[C@@H]3C[C@@H](CC(O)(C3)C1)C2` (stereo partly drawn) [Compound 15d-2, (1s,3r,5R,7S)-3-(2-(6-fluoro-5H-imidazo[5,1-a]isoindol-5-yl)-1-hydroxyethyl)adamantan-1-ol], the half-inhibitory concentration (IC50) against human IDO enzyme (IDO1) is > 0.5 µM.
As for `OC1[C@@H]2CC3C[C@H]1CC(C(O)CC1c4c(F)cccc4-c4cncn41)(C3)C2` (stereo partly drawn) [Compound 17, (1R,2s,3S,5s,7s)-5-(2-(6-fluoro-5H-imidazo[5,1-a]isoindol-5-yl)-1-hydroxyethyl)adamantan-2-ol], the figures for the IC50 against human IDO enzyme (IDO1) and on human TDO enzyme were < 0.1 µM and < 0.2 µM, respectively.
For `OC(CC1c2c(F)cccc2-c2cncn21)C12CC3CC(CC(C3)C1)C2` (stereo not shown) [Compound 15e, 1-((3r,5r,7r)-adamantan-1-yl)-2-(6-fluoro-5H-imidazo[5,1-a]isoindol-5-yl)ethanol], in that order: < 0.1 µM and < 0.5 µM.
`OC(CC1c2c(F)cccc2-c2cncn21)C12C[C@@H]3C[C@@H](CC(O)(C3)C1)C2` (stereo partly drawn) [Compound 15d-1, (1s,3r,5R,7S)-3-(2-(6-fluoro-5H-imidazo[5,1-a]isoindol-5-yl)-1-hydroxyethyl)adamantan-1-ol]: on human IDO enzyme (IDO1), the IC50 is > 0.5 µM.
Regarding `OC(CC1c2ccccc2-c2cncn21)C1CCN(c2ccccc2)CC1` (stereo not shown) [Compound 1, 2-(5H-imidazo[5,1-a]isoindol-5-yl)-1-(1-phenylpiperidin-4-yl)ethanol], the inhibition at 0.5 µM at human IDO enzyme (IDO1) is > 50%.
On to `OC(CC1c2c(F)cccc2-c2cncn21)C12C[C@@H]3C[C@@H](CC(O)(C3)C1)C2` (stereo partly drawn) [Compound 15d-3, (1s,3r,5R,7S)-3-(2-(6-fluoro-5H-imidazo[5,1-a]isoindol-5-yl)-1-hydroxyethyl)adamantan-1-ol], for which the 50% inhibitory concentration (IC50) against human IDO enzyme (IDO1) was < 0.1 µM.
Same read-out and setting: the result for `OC(CC1c2c(F)cccc2-c2cncn21)C1C2CC3CC1CC(O)(C3)C2` [Compound 18k-1, (1s,3R,5S,7s)-4-(2-(6-fluoro-5H-imidazo[5,1-a]isoindol-5-yl)-1-hydroxyethyl)adamantan-1-ol] reads < 0.5 µM.
On to `OC(CC1c2ccccc2-c2cncn21)C1CCN(c2ccc(C(F)(F)F)cc2)CC1` (stereo not shown) [Compound 8, 2-(5H-imidazo[5,1-a]isoindol-5-yl)-1-(1-(4-(trifluoromethyl)phenyl)piperidin-4-yl)ethanol], for which, at human IDO enzyme (IDO1), the inhibition at 0.5 µM was > 50%. Moreover, the inhibition at 1 µM at human TDO enzyme was > 50%.
Turning to `OC(CC1c2ccccc2-c2cncn21)C12C[C@@H]3C[C@@H](CC(O)(C3)C1)C2` (stereo partly drawn) [Compound 14f, (1s,3r,5R,7S)-3-(1-hydroxy-2-(5H-imidazo[5,1-a]isoindol-5-yl)ethyl)adamantan-1-ol], the IC50 is < 0.1 µM at human IDO enzyme (IDO1) and < 0.2 µM on human TDO enzyme.
With `OC(CC1c2ccccc2-c2cncn21)C1CCN(C2CC2)CC1` (stereo not shown) [Compound 3, 1-(1-cyclopropylpiperidin-4-yl)-2-(5H-imidazo[5,1-a]isoindol-5-yl)ethanol], the inhibition at 1 µM at human TDO enzyme was > 50%.
`OC(C1CCCCC1)C1(C2c3ccccc3-c3cncn32)CC1` (stereo not shown) [Compound 13, (1-(5H-imidazo[5,1-a]isoindol-5-yl)cyclopropyl)(cyclohexyl) methanol]: the inhibition at 1 µM at human TDO enzyme is > 50%.
Take `OC(CC1c2c(F)cccc2-c2cncn21)C12C[C@@H]3C[C@@H](CC(O)(C3)C1)C2` (stereo partly drawn) [Compound 15d-4, (1s,3r,5R,7S)-3-(2-(6-fluoro-5H-imidazo[5,1-a]isoindol-5-yl)-1-hydroxyethyl)adamantan-1-ol]: the IC50 at human IDO enzyme (IDO1) was > 0.5 µM.
On to `O=[N+]([O-])c1cc(C(F)(F)F)ccc1N1CCC(C(O)CC2c3ccccc3-c3cncn32)CC1` (stereo not shown) [Compound 9, 2-(5H-imidazo[5,1-a]isoindol-5-yl)-1-(1-(2-nitro-4-(trifluoromethyl)phenyl)piperidin-4-yl)ethanol], for which the IC50 was < 0.5 µM on human IDO enzyme (IDO1) and < 0.2 µM on human TDO enzyme.
On the same counts, the results for `OC(CC1c2c(F)cccc2-c2cncn21)C12C[C@@H]3C[C@@H](CC(O)(C3)C1)C2` (stereo partly drawn) [Compound 15d, (1s,3r,5R,7S)-3-(2-(6-fluoro-5H-imidazo[5,1-a]isoindol-5-yl)-1-hydroxyethyl)adamantan-1-ol] are < 0.1 µM and < 0.2 µM.
